Reference: patent publication US4966914A, “Oculoselective beta-blockers as antiglaucoma agents” (E. I. Du Pont de Nemours and Company, priority 1988, dated 1990)

Columns and labels:
beta-blocking effects = test: In vivo beta-blocking potency and duration of action (DOA); conditions: for DOA (duration of action): Tables 2 and 4
Procedure: (§1) The in vitro potency (pA2), in vivo potency and duration of action (DOA) of the compounds of the present invention are recorded in Tables 2 to 4. These pharmacological activities were determined using the methods described in U.S. patent 4,582,855 issued Apr.

ATRIA = target: T1, ATRIA (Cavia porcellus, UniProt H0W3H1); test: In vitro potency (pA2), beta-blocking, atria; assay type: cell-based; conditions: Tables 2 and 4; read-out: In-vitro potency pA2 (converted)
T1 construct: ATRIA; from tissue
Procedure: as §1

T1 sequence (H0W3H1 1-470): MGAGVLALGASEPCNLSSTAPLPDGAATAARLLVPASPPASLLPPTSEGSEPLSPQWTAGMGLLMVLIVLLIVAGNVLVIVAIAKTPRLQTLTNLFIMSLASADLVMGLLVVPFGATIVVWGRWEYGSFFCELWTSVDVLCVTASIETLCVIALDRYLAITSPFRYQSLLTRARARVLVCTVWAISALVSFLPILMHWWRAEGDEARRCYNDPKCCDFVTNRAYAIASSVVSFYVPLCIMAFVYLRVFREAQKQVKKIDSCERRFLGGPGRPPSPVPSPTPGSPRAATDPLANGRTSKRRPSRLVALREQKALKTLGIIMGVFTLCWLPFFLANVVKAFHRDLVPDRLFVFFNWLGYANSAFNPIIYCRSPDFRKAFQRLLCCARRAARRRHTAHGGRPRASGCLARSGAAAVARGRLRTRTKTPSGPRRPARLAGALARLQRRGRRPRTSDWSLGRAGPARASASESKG

SMILES	DOA (duration of action) (beta-blocking effects) [min]	Kb (ATRIA) [nM]	DOA (duration of action), second value after the slash (beta-blocking effects; Table 2, cell prints 31/>60) [min]
Cc1cc(O)c(O)cc1C(=O)OCC(O)CNC(C)(C)CNC(=O)C(C)C (stereo not shown)	42	6.31	–
Cc1cc(O)c(O)cc1C(=O)OCC(O)CNC(C)(C)CNC(=O)C1CCCCC1 (stereo not shown)	31	3.98	> 60
Cc1cc(O)c(O)cc1C(=O)OCC(O)CNC(C)(C)CNC(=O)N1CCOCC1 (stereo not shown)	60	2	–
Cc1cc(O)c(O)cc1C(=O)OCC(O)CNC(C)(C)CNC(=O)C1CCOCC1 (stereo not shown)	26	5.01	–
CCOc1cc(O)c(O)cc1C(=O)OCC(O)CNC(C)(C)CNC(=O)C(C)C (stereo not shown) [OEt]	22	–	–
COc1cc(O)c(O)cc1C(=O)OCC(O)CNC(C)(C)CNC(=O)C(C)C (stereo not shown) [OMe]	30	–	–
Cc1cc(O)c(O)cc1C(=O)OCC(O)CNC(C)(C)CNC(=O)C1CCOC1 (stereo not shown) [drawing 25]	49	1.58	–
